Paper doi:10.1101/2024.07.10.602890, “H105A peptide eye drops promote photoreceptor survival in murine and human models of retinal degeneration” (bioRxiv, 2024)
Ends that are not written are not given here.

Key:
[1] = system: rd10 and rd10/Serpinf1−/− mice; assay: Electroretinography (ERG) a-wave and b-wave after peptide eye drops; type: in vivo, mouse; details: for ERG a- and b-wave responses relative to vehicle-treated eyes: dark-adapted rd10 and rd10/Serpinf1−/− mice at P21, daily eye drops, n = 8
Description: Fig. 5: Effect of daily eyedrops of PEDF peptides on ERG a-wave and b-wave retinal function (A and B) Representative ERG waveforms for rd10 (A) and rd10/Serpinf1^−/− (B) mice at P21 in response to a light flash (1 cd.s/m^2). Amplitude (y-axis) is plotted against time in milliseconds (ms, x-axis). Treatments are indicated to the right of each plot and are color coded, with control wild type C57Bl/6J mice without peptide treatment shown in blue. A-wave and b-wave are indicated by arrows. (C and D) Photoreceptor a-wave amplitudes. Averages of photoreceptor a-wave amplitudes for rd10 (C) and rd10/Serpinf1^−/− (D) mice as a function of light intensity (cd/s.m^2, x-axis). Responses of animals treated with 17-mer are shown in green, H105A in black, and vehicle (HBSS) in red. Wildtype responses are shown in blue. (E and F) Bipolar cell b-wave amplitudes. Averages of bipolar cell b-wave amplitudes for rd10 (E) and rd10/Serpinf1^−/− (F) mice as a function of light intensity (cd/s.m^2, x-axis), with treatments indicated as in panels (C) and (D). The number of mice evaluated for the data shown in Panels C-F were n = 8 for each rd10, rd10/Serpinf1^−/− and wild type. Each data point represents the average ± SD of each genotype, analyzed by unpaired t-test. Statistical significance between H105A and vehicle is indicated by ##p < 0.01, ###p < 0.001, ####p < 0.0001, and between H105A and 17-mer by **p < 0.01, ***p < 0.001, ****p < 0.0001.
Electroretinogram (ERG) for rd10 and rd10/Serpinf1^−/− mice were recorded in both eyes of each animal using an Espion E2 system with ColorDome (Diagnosys LLC) with a heated surface and mice were dark-adapted overnight as previously described ([29]). Mice were placed on the heated surface and electrodes were placed in the mouth and a subdermal platinum needle electrode was placed in the back of the mouse to serve as ground. Responses were elicited with increasing light impulses with intensity from 0.0001 to 10 cd-seconds per meter squared (cd.s/m^2). Amplitudes for a-wave were measured from stimulus to the trough of the a-wave and b-wave amplitudes were measured from a-wave to b-wave trough or peak. The values from the a and b waves for both eyes were exported to Microsoft Excel to obtained amplitude values for each mouse.
Figure S2. Effects of extending the timeline or administering eye drops of 17-mer[H105A] peptide every other day in rd10 mic e.
Eye drops of H105A peptide solution were administered to r d1 0 mice either daily (Fig. S2A) or every other day (Fi g. S 2D). A total of 5 µl of a solution containing H105A peptide at 1 mg/ml in HBSS were applied as eye drops. The vehicle HBSS was added as eye drops in the contralateral eyes. When eye […]
intensity light at P25 (Fig. S2C). When eye drops of H105A were added every other day, a rescue in the ONL thickness in r d10 mice compared to vehicle was also observed (Fi g. S 2E), with an improvement in a- […]
efficacy of peptide H105A eye drops either daily or every other day in an extended timeline to stabilize photoreceptor morphology and light response function loss in r d10 mice, however, these were less efficacious than daily H105A peptide eye drops. […]
(C) ERG of r d1 0 mice at P25 and treated as in Fi g. […] For ERG data shown, the number of mice evaluated were n =5 for rd10 and each data point corresponds to the average ± SD of each genotype by unpaired t-test. *p < 0.05, **p < 0.01, * ** p < 0 .001 , ****p < 0.0001. […]

[2] = system: rd10 and rd10/Serpinf1−/− mice; assay: BAX and BCL2 immunofluorescence of retinal sections after peptide eye drops; type: in vivo, mouse; details: eye drops 1 mg/ml, vs vehicle, five retinas per group
Description: Fig. 3: Eyedrops of 17-mer and H105A peptides decreased the BAX/BCL2 ratio in photoreceptors of rd10 and rd10/Serpinf1−/− mice (A and B) Immunostaining of retinas. Representative fluorescent micrographs of retinas from rd10 (A) and rd10/Serpinf1^−/− (B) mice treated with 17-mer or H105A peptides at 1 mg/ml via eye drops, along with vehicle-treated controls. Immunostaining was performed with antibodies against BAX or BCL2 (green), and DAPI (blue). Histograms show quantification of immunofluorescence intensity for BAX and BCL2 markers. […] Each individual data point represents the average of one retina, with statistical significance determined by unpaired t-test (***p < 0.0001, ****p < 0.00001). Scale bar = 40 μm.
Both eyes were oriented before enucleation to allow sectioning along the dorsal/ventral axis. Enucleated eyes from rd10 and rd10 × Serpinf1^−/− mice were incised in the cornea and fixed in 2.5% glutaraldehyde for 20 min and then in 10% neutral buffered formalin at 4°C for at least 48 h, followed by paraffin embedding, sectioning, and staining with either H&E or immunofluorescence procedures, as previously described ([28]). For fluorescence microscopy, antibodies, and 0.1 μg/ml DAPI were used to immunostain and nuclei counterstain the sections, respectively. Antibodies used in the study are in Table S3. Images were acquired using a ZEIS 700 confocal microscope. Fluorescence intensity was quantified using ImageJ as previously described ([14], [26]).

With QRTESIIHRALYYDLIS [17-mer] the “ERG a- and b-wave responses relative to vehicle-treated eyes” value [1] was “protected visual function”, the “BAX level in photoreceptors (immunofluorescence)” value [2] was “significantly decreased” and the “BCL2 level in photoreceptors (immunofluorescence)” value [2] was “increased”.
For QRTESIIARALYYDLIS [H105A], the “ERG a- and b-wave responses relative to vehicle-treated eyes” value [1] was “protected visual function”, the ERG a-wave ([1]; rd10 mice, eye drops every other day P15 until P23, ERG at P25, n = 5) was “improvement” and the “BAX level in photoreceptors (immunofluorescence)” value [2] was “significantly decreased”. For the same sequence, the “BCL2 level in photoreceptors (immunofluorescence)” value [2] was “increased”.
